Where a name gives a salt, the structure may show the parent alone.

The target of the first series is T1, 5HT6 (Homo sapiens, UniProt P50406).
T1 construct: expressed in transfected cells; host or cells: HEK293
T1 sequence (P50406 whole entry, species assumed): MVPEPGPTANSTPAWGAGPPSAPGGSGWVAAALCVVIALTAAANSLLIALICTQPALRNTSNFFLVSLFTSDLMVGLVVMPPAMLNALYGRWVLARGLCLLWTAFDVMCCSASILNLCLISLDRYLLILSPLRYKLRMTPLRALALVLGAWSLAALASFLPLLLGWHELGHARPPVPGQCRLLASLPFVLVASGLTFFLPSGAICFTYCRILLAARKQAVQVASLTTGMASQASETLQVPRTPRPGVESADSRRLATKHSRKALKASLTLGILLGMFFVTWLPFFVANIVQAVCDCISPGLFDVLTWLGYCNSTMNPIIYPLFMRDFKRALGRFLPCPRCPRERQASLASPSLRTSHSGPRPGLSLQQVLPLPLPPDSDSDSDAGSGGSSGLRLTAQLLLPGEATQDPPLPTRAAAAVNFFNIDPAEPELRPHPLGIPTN
Nature of the series: radioligand binding to serotonin receptor, cell membrane sample, Ki by Cheng-Prusoff.
Conditions: not given
Here is the method:
A mixture of radioactive ligands and some cardinal numbers of test compounds was incubated with a sample of cell membrane, which was prepared from brain of rats or HEK293 cells, which expressed the receptor, under the following conditions. Then, the sample was filtered by suction on a Whatman GF/C. Radioactivity on the filter was encountered by the use of a liquid scintillation counter. 50% Inhibitory concentration values (IC50 values) of each selective binding were calculated for test compounds and the Ki value was obtained by applying an equation of Cheng-Prusoff [Biochem. Pharmacol. 22 (1973) 3099-3108] Ki=IC50/(1+[L]/Kd).
Molecule `CN(C)C1CC(=O)c2cccc3c2c(cn3S(=O)(=O)c2ccccc2)C1` (stereo not shown) [Compound 20-1, (2-Benzenesulfonyl-2,7,8,9-tetrahydro-6-oxo-2-azabenzo[cd]azulen-8-yl)dimethylamine oxalate] showed a Ki of 1.7 nM.
On the same count and under the same terms, as for `CN(C)C1COc2cccc3c2c(cn3S(=O)(=O)c2cccc3ccccc23)C1` (stereo not shown) [Compound 20-5], the figure is 0.49 nM.
On the same count and under the same terms, the result for `CN(C)C1COc2cccc3c2c(cn3S(=O)(=O)c2ccc(Br)cc2)C1` (stereo not shown) [Compound 20-11] reads 5.7 nM; that for `CN(C)C1COc2cccc3c2c(cn3S(=O)(=O)c2cccc(Br)c2)C1` (stereo not shown) [Compound 20-12], 2.7 nM.
In turn, `CN(C)C1COc2cccc3c2c(cn3S(=O)(=O)c2ccccc2Br)C1` (stereo not shown) [Compound 20-13] gave an inhibition constant (Ki) of 3.9 nM.
`COc1ccc(S(=O)(=O)n2cc3c4c(cccc42)OCC(N(C)C)C3)cc1` (stereo not shown) [Compound 20-14] registered a Ki of 22 nM.
The same measure, in the same setting: as for `CN(C)C1COc2cccc3c2c(cn3S(=O)(=O)/C=C/c2ccccc2)C1` (stereo not shown) [Compound 20-16], the figure is 22 nM.
Still for that read-out and setting: as for `CN(C)C1COc2cccc3c2c(cn3S(=O)(=O)c2cc(Cl)ccc2Cl)C1` (stereo not shown) [Compound 20-17], the figure is 29 nM; as for `CN(C)C1COc2c(Br)ccc3c2c(cn3S(=O)(=O)c2ccccc2)C1` (stereo not shown) [Compound 20-18], 22 nM; as for `CN(C)C1COc2cccc3c2c(cn3S(=O)(=O)c2ccc(F)cc2)C1` (stereo not shown) [Compound 20-19], 12 nM.
The same measure, in the same setting: as for `COc1cccc(S(=O)(=O)n2cc3c4c(cccc42)OCC(N(C)C)C3)c1` (stereo not shown) [Compound 20-24], the figure is 3.2 nM.
Molecule `CNC1COc2cccc3c2c(cn3S(=O)(=O)c2ccccc2)C1` (stereo not shown) [Compound 36-2] displayed a Ki of 8.5 nM.
Turning to `CN(C)C1COc2c(C=O)ccc3[nH]cc(c23)C1` (stereo not shown) [Compound 46-1, 8-Dimethylamino-2,7,8,9-tetrahydro-6-oxa-2-azabenzo[cd]-azulene-5-carbaldehyde], the Ki was determined as 28 nM.
On the same count and under the same terms, the result for `CN(C)C1COc2c(C=NO)ccc3[nH]cc(c23)C1` (stereo not shown) [Compound 47, 8-Dimethylamino-2,7,8,9-tetrahydro-6-oxa-2-azabenzo[cd]-azulene-5-carbaldehyde Oxime] reads 78 nM; that for `CN(C)C1COc2c(C#N)ccc3[nH]cc(c23)C1` (stereo not shown) [Compound 48, 8-Dimethylamino-2,7,8,9-tetrahydro-6-oxa-2-azabenzo[cd]-azulene-5-carbonitrile], 1 nM.

Staying with this series, now noted: rat 5-HT6 (HEK293), 8 nM [3H] 5HT 25° C. 120 min or 4 nM [3H] LSD 37° C. 60 min; read-out: Ki value (nM) ±SE 5-HT6.
As to `CN(C)C1COc2cccc3c2c(cn3S(=O)(=O)c2ccc(Cl)cc2)C1` (stereo not shown) [Compound 20-6], the Ki was determined as 2.7 nM.
Turning to `COc1ccc(S(=O)(=O)n2cc3c4c(cccc42)OCC(N(C)C)C3)cc1OC` (stereo not shown) [Compound 20-15], the Ki was found to be 29 nM.
On the same count and under the same terms, the result for `CN(C)C1COc2cccc3c2c(cn3S(=O)(=O)c2cc(F)c(Br)cc2F)C1` (stereo not shown) [Compound 20-20] reads 11 nM; that for `CN(C)C1COc2cccc3c2c(cn3S(=O)(=O)c2ccc(Cl)s2)C1` (stereo not shown) [Compound 20-21], 2.7 nM.
Regarding `CN(C)C1COc2cccc3c2c(cn3S(=O)(=O)c2ccc(F)cc2F)C1` (stereo not shown) [Compound 20-22], the Ki is 26 nM.
Still for that read-out and setting: as for `COc1ccc(OC)c(S(=O)(=O)n2cc3c4c(cccc42)OCC(N(C)C)C3)c1` (stereo not shown) [Compound 20-23], the figure is 9.9 nM; as for `CN(C)C1COc2cccc3c2c(cn3S(=O)(=O)c2ccc(-c3ccon3)s2)C1` (stereo not shown) [Compound 20-25], 36 nM.

System in the next series: not given
Assay: not given
Conditions: not given
With `N[C@@H]1COc2cccc3[nH]cc(c23)C1`, the melting point lay within 202 to 203 °C.
Take `c1cc2c3c(c[nH]c3c1)CC1(CO2)OCCO1`: the melting point lay in the range of 200 to 202 °C.
Same read-out and setting: the result for `OC1COc2cccc3[nH]cc(c23)C1` (stereo not shown) reads 169 to 170 °C; that for `CNC1COc2cccc3[nH]cc(c23)C1` (stereo not shown) (as salt: oxalate) [Compound 19-2], 112 to 116 °C.
Same read-out and setting: the result for `CN(C)C1COc2cccc3c2c(cn3S(=O)(=O)c2ccc(Cl)cc2)C1` (stereo not shown) (as salt: oxalate) [Compound 20-6] reads 114 to 118 °C (dec.); that for `CN(C)C1COc2cccc3c2c(cn3S(=O)(=O)c2cccs2)C1` (stereo not shown) (as salt: oxalate) [Compound 20-9], 142 to 144 °C (dec.).
On the same count and under the same terms, the result for `CN(C)C1COc2cccc3c2c(cn3S(=O)(=O)c2ccc(C(F)(F)F)cc2)C1` (stereo not shown) (as salt: oxalate) [Compound 20-10] reads 119 to 122 °C (dec.); that for `CN(C)C1COc2cccc3c2c(cn3S(=O)(=O)c2ccc(Br)cc2)C1` (stereo not shown) (as salt: oxalate) [Compound 20-11], 147 to 150 °C (dec.).
`CN(C)C1COc2cccc3c2c(cn3S(=O)(=O)c2cccc(Br)c2)C1` (stereo not shown) (as salt: oxalate) [Compound 20-12]: the melting point was 168 to 171 °C (dec.).
On the same count and under the same terms, as for `CN(C)C1COc2cccc3c2c(cn3S(=O)(=O)c2ccccc2Br)C1` (stereo not shown) (as salt: oxalate) [Compound 20-13], the figure is 173 to 176 °C (dec.).
Still for that read-out and setting: as for `COc1ccc(S(=O)(=O)n2cc3c4c(cccc42)OCC(N(C)C)C3)cc1` (stereo not shown) (as salt: oxalate) [Compound 20-14], the figure is 140 to 142 °C (dec.).
Still for that read-out and setting: as for `COc1ccc(S(=O)(=O)n2cc3c4c(cccc42)OCC(N(C)C)C3)cc1OC` (stereo not shown) (as salt: oxalate) [Compound 20-15], the figure is 123 to 126 °C (dec.); as for `CN(C)C1COc2cccc3c2c(cn3S(=O)(=O)/C=C/c2ccccc2)C1` (stereo not shown) (as salt: oxalate) [Compound 20-16], 169 to 171 °C (dec.); as for `CN(C)C1COc2cccc3c2c(cn3S(=O)(=O)c2cc(Cl)ccc2Cl)C1` (stereo not shown) (as salt: oxalate) [Compound 20-17], 161 to 163 °C (dec.).
With `CN(C)C1COc2cccc3c2c(cn3S(=O)(=O)c2ccc(F)cc2)C1` (stereo not shown) (as salt: oxalate) [Compound 20-19], the melting point was 143 to 144 °C (dec.).
Still for that read-out and setting: as for `CN(C)C1COc2cccc3c2c(cn3S(=O)(=O)c2cc(F)c(Br)cc2F)C1` (stereo not shown) (as salt: oxalate) [Compound 20-20], the figure is 128 to 131 °C (dec.).
Same read-out and setting: the result for `CN(C)C1COc2cccc3c2c(cn3S(=O)(=O)c2ccc(Cl)s2)C1` (stereo not shown) (as salt: oxalate) [Compound 20-21] reads 154 to 156 °C (dec.); that for `CN(C)C1COc2cccc3c2c(cn3S(=O)(=O)c2ccc(F)cc2F)C1` (stereo not shown) (as salt: oxalate) [Compound 20-22], 163 to 164 °C (dec.).
Same read-out and setting: the result for `COc1ccc(OC)c(S(=O)(=O)n2cc3c4c(cccc42)OCC(N(C)C)C3)c1` (stereo not shown) (as salt: oxalate) [Compound 20-23] reads 147 to 150 °C (dec.).
As for `CN(C)C1COc2cccc3c2c(cn3S(=O)(=O)c2ccc(-c3ccon3)s2)C1` (stereo not shown) (as salt: oxalate) [Compound 20-25], the melting point is 113 to 115 °C (dec.).
Still for that read-out and setting: as for `CNC1COc2cccc3c2c(cn3S(=O)(=O)c2ccccc2)C1` (stereo not shown) (as salt: oxalate) [Compound 36-2], the figure is 208 to 213 °C (dec.).
On the same count and under the same terms, the result for `CN(C)C1COc2cccc3c2c(cn3S(=O)(=O)c2cccc3ccccc23)C1` (stereo not shown) [Compound 20-5] reads 148 to 149 °C; that for `CN(C)C1COc2c(Br)ccc3c2c(cn3S(=O)(=O)c2ccccc2)C1` (stereo not shown) [Compound 20-18], 89 to 90 °C; that for `COc1cccc(S(=O)(=O)n2cc3c4c(cccc42)OCC(N(C)C)C3)c1` (stereo not shown) [Compound 20-24], 103 to 104 °C.

Broadly, the Ki is the dissociation constant of the complex between target and ligand, obtained from inhibition or displacement. As a reminder, the melting point is the temperature, or range, at which the solid turns liquid.

Values taken from patent US6858640B2, “Tricyclic indole compounds having affinity for serotonin receptor” (Shionogi & Co., Ltd., priority 2000, dated 2005).
